Reference: US20250230193A1, “CYCLIC COMPOUND HAVING SELECTIVE KRAS INHIBITORY EFFECT ON HRAS AND NRAS” (CHUGAI SEIYAKU KABUSHIKI KAISHA, priority 2022, published 2025)
*1 amine or outer side, *2 acyl side, *3 side chain or, on linkers, in order; H or OH if unused. Where a SMILES comes first, the peptide text is derived from it. Bridges are numbered along the chain shown (N, C = ends). [ ]: non-standard residue; d: D form. The star is where a group is joined. hPhe(3-Cl-4-CF3) = N[C@@H](CCc1ccc(C(F)(F)F)c(Cl)c1)C(=O)O; NPrPhe(4-CF3) = CCCN[C@@H](Cc1ccc(C(F)(F)F)cc1)C(=O)O; X50 = C=CCN([C@@H](Cc1ccc(C)cc1)C(=O)[*:2])[*:1]; NMeGly(cPent) = CN[C@H](C(=O)O)C1CCCC1; Pro(4,4-F2) = O=C(O)[C@@H]1CC(F)(F)CN1; NMeAllylGly = C=CC[C@H](NC)C(=O)O; NMeD = CN[C@@H](CC(=O)O)C(=O)O; NMeL = CN[C@@H](CC(C)C)C(=O)O; Morpholide = C1CN(*)CCO1; Ac5c = NC1(C(=O)O)CCCC1; Aze = O=C(O)[C@@H]1CCN1; Ac4c = NC1(C(=O)O)CCC1; Sar = CNCC(=O)O

What was measured:
[1] = target: GDP-bound NRAS wild-type protein (Homo sapiens, UniProt P01111); assay: Binding to NRAS by surface plasmon resonance (SPR), Single Cycle Kinetics; conditions: for NRAS/KRAS (ratio of KD value with respect to NRAS to KD value with respect to KRAS): GDP-bound NRAS wild-type vs GDP-bound KRAS wild-type
[2] = target: GDP-bound HRAS wild-type protein (Homo sapiens, UniProt P01112); assay: Binding to HRAS by surface plasmon resonance (SPR), Single Cycle Kinetics; conditions: for HRAS/KRAS (ratio of KD value with respect to HRAS to KD value with respect to KRAS): GDP-bound HRAS wild-type vs GDP-bound KRAS wild-type
Sequence of GDP-bound HRAS wild-type protein (P01112 whole entry): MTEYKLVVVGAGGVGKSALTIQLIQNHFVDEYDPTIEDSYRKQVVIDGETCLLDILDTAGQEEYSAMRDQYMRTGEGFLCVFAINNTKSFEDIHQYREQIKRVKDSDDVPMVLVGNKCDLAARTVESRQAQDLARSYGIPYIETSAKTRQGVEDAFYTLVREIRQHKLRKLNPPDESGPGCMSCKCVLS

Sequence of GDP-bound NRAS wild-type protein (P01111 whole entry): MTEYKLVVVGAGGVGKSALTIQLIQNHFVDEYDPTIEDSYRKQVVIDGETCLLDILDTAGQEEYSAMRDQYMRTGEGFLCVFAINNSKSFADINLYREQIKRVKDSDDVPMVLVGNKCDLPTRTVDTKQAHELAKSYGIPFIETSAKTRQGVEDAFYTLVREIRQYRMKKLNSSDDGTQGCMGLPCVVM

## CC[C@H](C)[C@@H]1NC(=O)[C@H](CC(C)C)N(C)C(=O)C[C@@H](C(=O)N2CCOCC2)N(C)C(=O)[C@H](C2CCCC2)N(C)C(=O)C2(CCCC2)NC(=O)[C@@H]2CCCN2C(=O)[C@H](CCc2ccc(C(F)(F)F)c(Cl)c2)NC(=O)CN(C)C(=O)[C@H](Cc2ccc(Cl)cc2)N2CC=CC[C@@H](C2=O)N(C)C(=O)CN(C)C1=O [PP0533]
[1]; SPR
  NRAS/KRAS (ratio of KD value with respect to GDP-bound NRAS wild-type protein to KD value with respect to KRAS): C (A compound having a KD ratio of 0.1 or more and less than 3 is denoted as C)
[2]; SPR
  HRAS/KRAS (ratio of KD value with respect to GDP-bound HRAS wild-type protein to KD value with respect to KRAS): C (A compound having a KD ratio of 0.1 or more and less than 3 is denoted as C)

## CCC(CC)[C@H]1C(=O)N(C)[C@H](C(=O)N(C)C)CC(=O)N(C)[C@@H](COC)C(=O)N[C@@H]([C@@H](C)CC)C(=O)N(C2CC2)CC(=O)N(C)[C@H]2C/C=C\CCN(C2=O)[C@@H](CC2CCC(F)(F)CC2)C(=O)N(C)CC(=O)N[C@@H](CCc2cc(F)c(C(F)(F)F)c(F)c2)C(=O)N2C[C@H](OC3CCC3)C[C@H]2C(=O)NC2(CC(C)(C)C2)C(=O)N1C [PP2615]
[1]; class symbols
  NRAS/KRAS (ratio of KD value with respect to GDP-bound NRAS wild-type protein to KD value with respect to KRAS): A (a compound having 10 or more and less than 20 is denoted as A)
[2]; class symbols
  HRAS/KRAS (ratio of KD value with respect to GDP-bound HRAS wild-type protein to KD value with respect to KRAS): A (a compound having 10 or more and less than 20 is denoted as A)

## CCCN1C(=O)CN(C)C(=O)[C@@H]2CCN2C(=O)[C@H]([C@@H](C)CC)NC(=O)[C@H](CC(C)C)N(C)C(=O)C[C@@H](C(=O)N2CCOCC2)N(C)C(=O)[C@H](C2CCCC2)N(C)C(=O)C2(CCC2)NC(=O)[C@@H]2CC(F)(F)CN2C(=O)[C@H](CCc2ccc(C(F)(F)F)c(Cl)c2)NC(=O)CN(C)C(=O)[C@@H]1Cc1ccc(C(F)(F)F)cc1 [PP0404] ([NMeL]I[Aze][Sar][NPrPhe(4-CF3)][Sar][hPhe(3-Cl-4-CF3)][Pro(4,4-F2)][Ac4c][NMeGly(cPent)][NMeD]-Morpholide; lactam N-11)
[1]; SPR
  NRAS/KRAS (ratio of KD for GDP-bound NRAS wild-type to KD for KRAS): B (a compound having 3 or more and less than 10 is denoted as B)
[2]; SPR
  HRAS/KRAS (ratio of KD for GDP-bound HRAS wild-type to KD for KRAS): C (A compound having a KD ratio of 0.1 or more and less than 3 is denoted as C)

## CCCN1C(=O)CN(C)C(=O)[C@@H]2CCN2C(=O)[C@H]([C@@H](C)CC)NC(=O)[C@H](CC(C)C)N(C)C(=O)C[C@@H](C(=O)N(C)C)N(C)C(=O)[C@H](C2CCCC2)N(C)C(=O)C2(CCCC2)NC(=O)[C@@H]2CC(F)(F)CN2C(=O)[C@H](CCc2ccc(C(F)(F)F)c(Cl)c2)NC(=O)CN(C)C(=O)[C@@H]1Cc1ccc(C(F)(F)F)cc1 [PP0431] ([NMeL]I[Aze][Sar][NPrPhe(4-CF3)][Sar][hPhe(3-Cl-4-CF3)][Pro(4,4-F2)][Ac5c][NMeGly(cPent)][NMeD]-NMe2; lactam N-11)
[1]; SPR
  NRAS/KRAS (ratio of KD value with respect to GDP-bound NRAS wild-type protein to KD value with respect to KRAS): B (a compound having 3 or more and less than 10 is denoted as B)
[2]; SPR
  HRAS/KRAS (ratio of KD value with respect to GDP-bound HRAS wild-type protein to KD value with respect to KRAS): C (A compound having a KD ratio of 0.1 or more and less than 3 is denoted as C)

## C=CC[C@H]1C(=O)N(CC=C)[C@@H](Cc2ccc(C)cc2)C(=O)N(C)CC(=O)N[C@@H](CCc2ccc(C(F)(F)F)c(Cl)c2)C(=O)N2CCC[C@H]2C(=O)NC2(CCCC2)C(=O)N(C)[C@@H](C2CCCC2)C(=O)N(C)[C@H](C(=O)N2CCOCC2)CC(=O)N(C)[C@@H](CC(C)C)C(=O)N[C@@H]([C@@H](C)CC)C(=O)N(C)CC(=O)N1C [PP0139] ([NMeL]I[Sar][NMeAllylGly][X50][Sar][hPhe(3-Cl-4-CF3)]P[Ac5c][NMeGly(cPent)][NMeD]-Morpholide; lactam N-11)
[1]; SPR
  NRAS/KRAS (ratio of KD for GDP-bound NRAS wild-type to KD for KRAS): C (A compound having a KD ratio of 0.1 or more and less than 3 is denoted as C)
[2]; SPR
  HRAS/KRAS (ratio of KD for GDP-bound HRAS wild-type to KD for KRAS): C (A compound having a KD ratio of 0.1 or more and less than 3 is denoted as C)

## CCO[C@@H]1C[C@H]2C(=O)NC3(CC(C)(C)C3)C(=O)N(C)[C@@H](C3CCCC3)C(=O)N(C)[C@H](C(=O)N(C)CC)CC(=O)N(C)[C@@H](C3CC3)C(=O)N[C@@H]([C@@H](C)CC)C(=O)N(C)CC(=O)N(C)[C@H]3C/C=C\CCN(C3=O)[C@@H](Cc3ccc(C(F)(F)F)cc3)C(=O)N(C)CC(=O)N[C@@H](CCc3cc(F)c(C(F)(F)F)c(F)c3)C(=O)N2C1 [PP2036]
[1]; SPR
  NRAS/KRAS (ratio of KD value with respect to NRAS to KD value with respect to KRAS): A (a compound having 10 or more and less than 20 is denoted as A)
[2]; SPR
  HRAS/KRAS (ratio of KD value with respect to HRAS to KD value with respect to KRAS): A (a compound having 10 or more and less than 20 is denoted as A)

## CC[C@H](C)[C@@H]1NC(=O)[C@H](CC(C)C)N(C)C(=O)C[C@@H](C(=O)N2CCOCC2)N(C)C(=O)[C@H](C2CCCC2)N(C)C(=O)C2(CCC2)NC(=O)[C@@H]2[C@@H](O)CCN2C(=O)[C@H](CCc2cc(F)c(C(F)(F)F)c(F)c2)NC(=O)CN(C)C(=O)[C@H](Cc2ccc(C(F)(F)F)cc2)N2CCCCC[C@@H](C2=O)N(C)C(=O)CN(C)C1=O [PP0872]
[1]; KD ratio, SPR
  NRAS/KRAS (ratio of KD value with respect to NRAS to KD value with respect to KRAS): A (a compound having 10 or more and less than 20 is denoted as A)
[2]; KD ratio, SPR
  HRAS/KRAS (ratio of KD value with respect to HRAS to KD value with respect to KRAS): A (a compound having 10 or more and less than 20 is denoted as A)
